Values of other authors, collected in patent US8518458B2, “Tea-derived compositions and methods of using same for cardiovascular health” (Immune Guard, LLC, priority 2006, dated 2013).

Details: spontaneously hypertensive rats

Compound: CCNC(=O)CC[C@H](N)C(=O)O [L-theanine, γ-glutamylethylamide]
- effect on blood pressure: reduces blood pressure
